Key:
[1] = target: hGYS1 enzyme (recombinant hGYS1/GN1 protein) (Homo sapiens (Human), UniProt P13807); test: GYS1 coupled enzyme assay (PK/LDH); format: biochemical; details: hGYS1/GN1 50 nM, UDP-Glucose 0.8 mM, G6P 1 mM; geometric mean of at least 2 runs
[2] = target: hGYS2 enzyme (recombinant hGYS2/GN1 protein) (Homo sapiens (Human), UniProt P54840); test: GYS2 coupled enzyme assay (PK/LDH); format: biochemical; details: geometric mean of at least 2 assay runs on separate days, read-out: Avg_IC50
Procedure, shortened: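 hGYS2/GN1 200 nM; UDP-Glc 2 mM; glycogen 0.2%; G6P 2 mM; PEP 2 mM, NADH 0.6 mM, PK/LDH 20 U/mL. 50 mM Tris pH 7.5, MgCl2, KCl, BSA, TCEP, 2.5% DMSO. Kinetic A340, 10 min. IC50 = geomean of ≥2 runs.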

hGYS1 enzyme (recombinant hGYS1/GN1 protein), sequence (P13807 whole entry): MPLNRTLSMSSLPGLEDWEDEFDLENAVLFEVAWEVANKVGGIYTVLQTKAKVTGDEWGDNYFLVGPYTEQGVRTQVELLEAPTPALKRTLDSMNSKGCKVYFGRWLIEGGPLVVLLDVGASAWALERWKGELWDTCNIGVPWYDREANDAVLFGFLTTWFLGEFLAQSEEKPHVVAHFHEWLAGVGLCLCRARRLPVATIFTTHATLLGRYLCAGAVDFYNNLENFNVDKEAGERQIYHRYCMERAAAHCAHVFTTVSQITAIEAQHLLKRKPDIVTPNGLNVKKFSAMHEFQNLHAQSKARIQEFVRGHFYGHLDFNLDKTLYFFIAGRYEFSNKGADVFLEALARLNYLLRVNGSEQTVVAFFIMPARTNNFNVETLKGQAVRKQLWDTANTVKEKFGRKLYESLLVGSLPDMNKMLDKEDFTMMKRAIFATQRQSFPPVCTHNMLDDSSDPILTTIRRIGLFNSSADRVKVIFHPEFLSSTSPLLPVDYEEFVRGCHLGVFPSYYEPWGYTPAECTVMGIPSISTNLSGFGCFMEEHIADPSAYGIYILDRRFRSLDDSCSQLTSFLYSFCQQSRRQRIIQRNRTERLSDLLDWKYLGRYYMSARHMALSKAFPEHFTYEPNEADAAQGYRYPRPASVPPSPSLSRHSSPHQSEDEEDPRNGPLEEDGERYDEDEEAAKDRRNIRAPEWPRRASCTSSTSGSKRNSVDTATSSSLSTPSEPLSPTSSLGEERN
hGYS1 enzyme (recombinant hGYS1/GN1 protein), sequence (P46976 whole entry partner): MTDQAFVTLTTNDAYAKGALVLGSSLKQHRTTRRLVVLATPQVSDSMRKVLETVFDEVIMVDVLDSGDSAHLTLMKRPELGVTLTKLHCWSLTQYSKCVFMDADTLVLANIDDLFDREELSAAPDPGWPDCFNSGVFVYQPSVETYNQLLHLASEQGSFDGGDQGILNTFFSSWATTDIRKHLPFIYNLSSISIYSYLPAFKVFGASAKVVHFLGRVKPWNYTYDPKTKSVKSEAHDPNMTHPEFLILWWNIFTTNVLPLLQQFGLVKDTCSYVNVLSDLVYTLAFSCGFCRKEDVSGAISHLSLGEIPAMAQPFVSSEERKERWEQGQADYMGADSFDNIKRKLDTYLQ
hGYS2 enzyme (recombinant hGYS2/GN1 protein), sequence (P54840 whole entry): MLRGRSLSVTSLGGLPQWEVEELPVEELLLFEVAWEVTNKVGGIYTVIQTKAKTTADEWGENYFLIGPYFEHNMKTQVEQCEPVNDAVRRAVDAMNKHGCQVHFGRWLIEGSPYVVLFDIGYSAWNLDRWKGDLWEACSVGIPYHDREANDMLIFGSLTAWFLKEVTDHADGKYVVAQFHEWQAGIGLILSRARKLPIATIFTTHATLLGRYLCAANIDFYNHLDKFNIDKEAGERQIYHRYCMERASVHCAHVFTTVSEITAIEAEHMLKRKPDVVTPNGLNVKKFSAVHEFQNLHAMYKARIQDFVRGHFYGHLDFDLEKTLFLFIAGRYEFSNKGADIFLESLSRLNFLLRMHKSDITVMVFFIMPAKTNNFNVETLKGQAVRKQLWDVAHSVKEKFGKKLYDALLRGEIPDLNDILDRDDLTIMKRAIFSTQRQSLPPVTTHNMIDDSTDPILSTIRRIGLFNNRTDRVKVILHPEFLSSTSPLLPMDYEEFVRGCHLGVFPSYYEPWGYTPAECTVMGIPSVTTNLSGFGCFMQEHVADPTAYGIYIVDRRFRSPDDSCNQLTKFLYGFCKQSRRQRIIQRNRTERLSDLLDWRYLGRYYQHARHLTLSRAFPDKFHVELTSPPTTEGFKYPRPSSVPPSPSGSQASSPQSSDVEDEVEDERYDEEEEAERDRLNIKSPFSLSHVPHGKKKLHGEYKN
hGYS2 enzyme (recombinant hGYS2/GN1 protein), sequence (P46976 whole entry partner): as the sequence (P46976 whole entry partner) above

Row | SMILES | IC50 [1] | IC50 [2]
1 | CC(C)c1ccc([C@H](NC(=O)[C@@H]2C[C@@H](F)CN2C(=O)Cc2cnn[nH]2)c2ccccc2)cc1Cl [Compound 671, (2S,4R)-N-[(R)-[3-chloro-4-(propan-2-yl)phenyl](phenyl)methyl]-4-fluoro-1-[2-(1H-1,2,3-triazol-5-yl)acetyl]pyrrolidine-2-carboxamide] | 849 nM | > 100000 nM
2 | O=C(N[C@@H](c1ccccc1)c1ccc(C2CC2)c(F)c1)[C@@H]1C[C@@H](F)CN1C(=O)CN1CCOC1=O [Compound 424, (2S,4R)-N-[(S)-(4-cyclopropyl-3-fluorophenyl)(phenyl)methyl]-4-fluoro-1-[2-(2-oxo-1,3-oxazolidin-3-yl)acetyl] pyrrolidine-2-carboxamide] | 287 nM | > 100000 nM
3 | CC(C)c1ccc([C@@H](NC(=O)[C@@H]2C[C@@H](F)CN2C(=O)CCC#N)c2ccccc2)cc1 [Compound 13, (2S,4R)-1-(3-cyanopropanoyl)-4-fluoro-N-[(S)-phenyl[4-(propan-2-yl)phenyl]methyl]pyrrolidine-2-carboxamide] | 147 nM | > 100000 nM
4 | CC(Cc1ccncc1)C(=O)N1C[C@H](F)C[C@H]1C(=O)N[C@@H](c1ccccc1)c1ccc(C(C)C)cc1 (stereo partly drawn) [Compound 98, (2S,4R)-4-fluoro-1-[2-methyl-3-(pyridin-4-yl)propanoyl]-N-[(S)-phenyl[4-(propan-2-yl)phenyl]methyl]pyrrolidine-2-carboxamide] | 244 nM | > 100000 nM
5 | CC(=O)N1C[C@H](F)C[C@H]1C(=O)NC(c1ccccc1)c1ccc(C2CCC2)cn1 (single isomer, unassigned) [Compound 603, (2S,4R)-1-acetyl-N-[(S) or (R)-(5-cyclobutylpyridin-2-yl) (phenyl)methyl]-4-fluoropyrrolidine-2-carboxamide] | 602 nM | > 100000 nM
6 | CC(C)c1ccc([C@@H](NC(=O)[C@@H]2C[C@@H](F)CN2C(=O)CNC2(C)COC2)c2ccccc2)cc1 [Compound 193, (2S,4R)-4-fluoro-1-{2-[(3-methyloxetan-3-yl)amino]acetyl}-N-[(S)-phenyl[4-(propan-2-yl)phenyl]methyl]pyrrolidine-2-carboxamide] | 303 nM | > 100000 nM
7 | O=C(N[C@@H](c1ccccc1)c1ccc(C2CC2)c(F)c1)[C@@H]1C[C@@H](F)CN1C(=O)CCc1ncco1 [Compound 422, (2S,4R)-N-[(S)-(4-cyclopropyl-3-fluorophenyl)(phenyl)methyl]-4-fluoro-1-[3-(1,3-oxazol-2-yl)propanoyl]pyrrolidine-2-carboxamide] | 166 nM | > 100000 nM
8 | O=C(N[C@@H](c1ccccc1)c1ccc(C2CC2)c(F)c1)[C@@H]1C[C@@H](F)CN1C(=O)Cc1nnn[nH]1 [Compound 430, (2S,4R)-N-[(S)-(4-cyclopropyl-3-fluorophenyl)(phenyl)methyl]-4-fluoro-1-[2-(1H-1,2,3,4-tetrazol-5-yl)acetyl]pyrrolidine-2-carboxamide] | 191 nM | > 100000 nM
9 | CC(=O)N1C[C@H]2COC[C@@]2(C(=O)N2C[C@H](F)C[C@H]2C(=O)N[C@@H](c2ccccc2)c2ccc(C(C)C)cc2)C1 [Compound 3, (2S,4R)-1-[(3aS,6aS)-5-acetyl-hexahydro-1H-furo[3,4-c]pyrrole-3a-carbonyl]-4-fluoro-N-[(S)-phenyl[4-(propan-2-yl)phenyl]methyl]pyrrolidine-2-carboxamide] | 168 nM | > 100000 nM
10 | COc1ccccc1[C@H](NC(=O)[C@@H]1CCCN1C(C)=O)c1ccc(C(C)C)cc1 [Compound 639, (2S)-1-acetyl-N-[(R)-(2-methoxyphenyl)[4-(propan-2-yl)phenyl]methyl] pyrrolidine-2-carboxamide] | 921 nM | > 100000 nM

Now those with a lower IC50 [1], led by results:

Row | IC50 [1] | IC50 [2] | SMILES
11 | 25 nM | > 100000 nM | Cc1n[nH]c(CC(=O)N2C[C@H](F)C[C@H]2C(=O)N[C@@H](c2ccccc2)c2ccc(C(C)C)cc2)n1 [Compound 232, (2S,4R)-4-fluoro-1-[2-(3-methyl-1H-1,2,4-triazol-5-yl)acetyl]-N-[(S)-phenyl[4-(propan-2-yl)phenyl]methyl]pyrrolidine-2-carboxamide]
12 | 62 nM | > 100000 nM | CC(C)c1ccc([C@@H](NC(=O)[C@@H]2C[C@@H](F)CN2C(=O)C(C)c2cnn[nH]2)c2ccccc2)cc1F (single isomer, unassigned) [Compound 770, (2S,4R)-4-fluoro-N-[(S)-[3-fluoro-4-(propan-2-yl)phenyl](phenyl)methyl]-1-[(2S) or (2R)-2-(1H-1,2,3-triazol-5-yl)propanoyl]pyrrolidine-2-carboxamide]
13 | 136 nM | > 100000 nM | CC(=O)N1C[C@H]2C[C@H](C(=O)N3C[C@H](F)C[C@H]3C(=O)N[C@@H](c3ccccc3)c3ccc(C(C)C)cc3)O[C@H]2C1 [Compound 162, (2S,4R)-1-[(2R,3aR,6aR)-5-acetyl-hexahydro-2H-furo[2,3-c]pyrrole-2-carbonyl]-4-fluoro-N-[(S)-phenyl[4-(propan-2-yl)phenyl]methyl]pyrrolidine-2-carboxamide]
14 | 91 nM | > 100000 nM | CC(C)c1ccc([C@@H](NC(=O)[C@@H]2C[C@@H](F)CN2C(=O)CCn2ccnn2)c2ccccc2)cc1 [Compound 11, (2S,4R)-4-fluoro-N-[(S)-phenyl[4-(propan-2-yl)phenyl]methyl]-1-[3-(1H-1,2,3-triazol-1-yl)propanoyl]pyrrolidine-2-carboxamide]
15 | 56 nM | > 100000 nM | CC(C)c1ccc([C@@H](NC(=O)[C@@H]2C[C@@H](F)CN2C(=O)CNC(=O)N2CC(F)(F)C2)c2ccccc2)nc1 [Compound 290, (2S,4R)-1-{2-[(3,3-difluoroazetidine-1-carbonyl]amino]acetyl}-4-fluoro-N-[(S)-phenyl[5-(propan-2-yl)pyridin-2-yl]methyl]pyrrolidine-2-carboxamide]
16 | 85 nM | > 100000 nM | CC(C)c1ccc([C@@H](NC(=O)[C@@H]2C[C@@H](F)CN2C(=O)CCc2cnccn2)c2ccccc2)cc1 [Compound 59, (2S,4R)-4-fluoro-N-[(S)-phenyl[4-(propan-2-yl)phenyl]methyl]-1-[3-(pyrazin-2-yl)propanoyl]pyrrolidine-2-carboxamide]
17 | 44 nM | > 100000 nM | CC(C)c1ccc([C@@H](NC(=O)[C@@H]2C[C@@H](F)CN2C(=O)Cc2cnco2)c2ccccc2)cc1 [Compound 195, (2S,4R)-4-fluoro-1-[2-(1,3-oxazol-5-yl)acetyl]-N-[(S)-phenyl[4-(propan-2-yl)phenyl]methyl]pyrrolidine-2-carboxamide]
18 | 25 nM | > 100000 nM | COc1cccc(CC(=O)N2C[C@H](F)C[C@H]2C(=O)N[C@@H](c2ccccc2)c2ccc(C(C)C)cc2)n1 [Compound 81, (2S,4R)-4-fluoro-1-[2-(6-methoxypyridin-2-yl)acetyl]-N-[(S)-phenyl[4-(propan-2-yl)phenyl]methyl]pyrrolidine-2-carboxamide]
19 | 44 nM | > 100000 nM | CC(C)c1ccc([C@@H](NC(=O)[C@@H]2C[C@@H](F)CN2C(=O)COc2cccnc2)c2ccccc2)cc1 [Compound 48, (2S,4R)-4-fluoro-N-[(S)-phenyl[4-(propan-2-yl)phenyl]methyl]-1-[2-(pyridin-3-yloxy)acetyl]pyrrolidine-2-carboxamide]
20 | 70 nM | > 100000 nM | CC(C)c1ccc([C@@H](NC(=O)[C@@H]2C[C@@H](F)CN2C(=O)Cc2nnco2)c2ccccc2)cc1 (stereo in doubt) [Compound 224, (2RS,4R)-4-fluoro-1-[2-(1,3,4-oxadiazol-2-yl)acetyl]-N-[(S)-phenyl[4-(propan-2-yl)phenyl]methyl]pyrrolidine-2-carboxamide]
21 | 75 nM | > 100000 nM | CC(C)c1ccc([C@@H](NC(=O)[C@@H]2C[C@@H](F)CN2C(=O)C(C)n2cncn2)c2ccccc2)cc1 (stereo partly drawn) [Compound 34, (2S,4R)-4-fluoro-N-[(S)-phenyl[4-(propan-2-yl)phenyl]methyl]-1-[2-(1H-1,2,4-triazol-1-yl)propanoyl]pyrrolidine-2-carboxamide]
22 | 23 nM | > 100000 nM | CC(C)c1ccc([C@@H](NC(=O)[C@@H]2C[C@@H](F)CN2C(=O)Cc2cncnc2)c2ccccc2)cc1 [Compound 27, (2S,4R)-4-fluoro-N-[(S)-phenyl[4-(propan-2-yl)phenyl]methyl]-1-[2-(pyrimidin-5-yl)acetyl]pyrrolidine-2-carboxamide]
23 | 15 nM | > 100000 nM | CC(C)c1ccc([C@@H](NC(=O)[C@@H]2C[C@@H](F)CN2C(=O)Cc2cc(F)ccc2Cl)c2ccccc2)cc1 [Compound 63, (2S,4R)-1-[2-(2-chloro-5-fluorophenyl]acetyl]-4-fluoro-N-[(S)-phenyl[4-(propan-2-yl)phenyl]methyl]pyrrolidine-2-carboxamide]
24 | 32 nM | > 100000 nM | COc1ccc(F)cc1CC(=O)N1C[C@H](F)C[C@H]1C(=O)N[C@@H](c1ccccc1)c1ccc(C(C)C)cc1 [Compound 90, (2S,4R)-4-fluoro-1-[2-(5-fluoro-2-methoxyphenyl)acetyl]-N-[(S)-phenyl[4-(propan-2-yl)phenyl]methyl]pyrrolidine-2-carboxamide]
25 | 49 nM | > 100000 nM | COc1ccc(CC(=O)N2C[C@H](F)C[C@H]2C(=O)N[C@@H](c2ccccc2)c2ccc(C(C)C)cc2)cc1 [Compound 88, (2S,4R)-4-fluoro-1-[2-(4-methoxyphenyl)acetyl]-N-[(S)-phenyl[4-(propan-2-yl)phenyl]methyl]pyrrolidine-2-carboxamide]
